Structures are written as SMILES. Read-outs that look alike come from different tables or passages of the source.

For data set [1], the target named is T1, DNA-PK phosphorylation at Serine 2056 (Homo sapiens, UniProt P78527).
T1 construct: FaDu cells were purchased from ATCC; host or cells: FaDu
The experiment in a line: Cellular Assay for Inhibition of DNA-PK Phosphorylation at Serine 2056 in FaDu cells (sandwich ELISA, neocarzinostatin). It is filed as cell-based. The settings on record: pSer2056 DNA-PK, Table 3. The essentials: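 pSer2056 and total DNA-PK were measured by sandwich ELISA in BCA-normalised FaDu lysates. Cells had 1 h compound exposure (0.3% DMSO), then 2 h with 1 μg/mL final neocarzinostatin. IC50 was fitted (variable slope) to % inhibition scaled against NCS-stimulated and DMSO-only controls.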

In data set [2] the test system is pH2AX induction in HCT116 ATM-/- multicellular tumour spheroids. Nature of the data set: Prodrug Radiation Sensitization in Multicellular Tumour Spheroids, inhibition of pH2AX induction following radiation. It is filed as cell-based. The note with it: Homo sapiens, HCT-116, 20 Gy. The essentials: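 Endpoint: pH2AX (ser 139) or pDNA-PK (ser 2056) in cryosections fixed 1 or 2 h after 20 Gy, comparing oxygenated outer with hypoxic inner layers. Spheroids of ~0.5 mm (HCT116, FaDu; ATM-deficient cells used) held at 20% or 5% O2, 37 °C, stirred. Prodrug range 3.5 nM–10 μM.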

A further data set concerns FaDu cell line. The experiment in a line: Prodrug Activation in Hypoxic Stirred Tumour Cell Suspensions. The settings on record: 10 μM, 4 hours.
Where [3] appears, read: 5% O2, inner layers, read-out: Prodrug 5% O2 Inner layers EC50.
The mark [4] stands for this setting: 5% O2, outer layers, read-out: Prodrug 5% O2 Outer layers EC50.
Setting [5] is: 20% O2, outer layers, read-out: Prodrug 20% O2 Outer layers EC50.

Experimental for FaDu cell line: Prodrug compounds were assayed to determine their stability and rate of activation in stirred cell suspensions under 0.2 vs 5% oxygen. Compounds were diluted 1:1000 from DMSO stocks to 10 μM final concentration in tumour cell suspensions (1% by cell volume) in MEM media containing 10% FBS, 10 mM glucose & 3.7 g/L sodium bicarbonate. Cell lines assayed included A253, A549, Detroit562, FaDu, HCT116, HEP G2, HT29, SCC25, SCC9, SiHa & TC32. Compounds and cells were then incubated for 4 hours under constant mixing at 37° C. under 5% CO2 and either 0.2 or 5% O2. Following the incubation period cellular activation of the compounds was assayed via MeOH extraction and HPLC quantification.

As usually defined, the IC50 is the midpoint of a concentration-inhibition curve. Low values mean greater potency in that assay, high ones weaker potency in that assay. Usually EC50 stands for the concentration needed to bring the measured effect to its halfway point. For the compound `CN1CCN(CCOc2cnc(N[C@H]3CC[C@@H](Oc4nc(N5CCOCC5)cc5ncc(N(Cc6cnc([N+](=O)[O-])n6C)S(C)(=O)=O)cc45)CC3)nc2)CC1` [LFA2059, N-[(3-methyl-2-nitro-imidazol-4-yl)methyl]-N-[5-[4-[[5-[2-(4-methylpiperazin-1-yl)ethoxy]pyrimidin-2-yl]amino]cyclohexoxy]-7-morpholino-1,6-naphthyridin-3-yl]methanesulfonamide], the IC50 in data set [1] fell in the range of 1000 to 10000 nM. Moreover, the concentration for a half-maximal effect (EC50) in data set [2] (setting [3]), in data set [2] (setting [4]) and in data set [2] (setting [5]) was 1000 to 10000 nM each time. Further, the “Fraction of prodrug converted to active form, Hypoxic 0.2% O2” value (“Fraction … Hypoxic 0.2% O2” below) in the data set with FaDu cell line was “B (B is 0.05 to 0.15)”. Moreover, the “Fraction of prodrug converted to active form, Oxic 5% O2” value (“Fraction … Oxic 5% O2” below) with FaDu cell line is on record as “D (D is 0 to 0.02)”.

Compound `CC(c1cnc([N+](=O)[O-])n1C)N(c1cnc2cc(N3CCOCC3)nc(O[C@H]3CC[C@@H](Nc4ncc(OCCN5CCN(C)CC5)cn4)CC3)c2c1)S(C)(=O)=O` (stereo partly drawn) [LFA2060, N-[1-(3-methyl-2-nitro-imidazol-4-yl)ethyl]-N-[5-[4-[[5-[2-(4-methylpiperazin-1-yl)ethoxy]pyrimidin-2-yl]amino]cyclohexoxy]-7-morpholino-1,6-naphthyridin-3-yl]methanesulfonamide] showed an IC50 in data set [1] of 10000 to 30000 nM. Also, the values for the concentration giving a half-maximal response (EC50) in data set [2] (setting [3]), in data set [2] (setting [4]) and in data set [2] (setting [5]) were 500 to 1000 nM, 1000 to 10000 nM and 10000 to 100000 nM, respectively. For the same compound, in the data set with FaDu cell line, the “Fraction … Hypoxic 0.2% O2” value was “A (A is 0.15 to 1)”. For the same compound, in the data set on FaDu cell line, the “Fraction … Oxic 5% O2” value is recorded as “D (D is 0 to 0.02)”.

`CC(c1cnc([N+](=O)[O-])n1C)N(c1cnc2cc(N3CCOCC3)nc(O[C@H]3CC[C@@H](Nc4ncc(OCCN(C)C)cn4)CC3)c2c1)S(C)(=O)=O` (stereo partly drawn) [LFA2061, N-[5-[4-[[5-[2-(dimethylamino)ethoxy]pyrimidin-2-yl]amino]cyclohexoxy]-7-morpholino-1,6-naphthyridin-3-yl]-N-[1-(3-methyl-2-nitro-imidazol-4-yl)ethyl]methanesulfonamide]: the IC50 in data set [1] is 10000 to 30000 nM. The EC50 in data set [2] (setting [3]) is 500 to 1000 nM; in data set [2] (setting [4]), 1000 to 10000 nM; in data set [2] (setting [5]) it was 10000 to 100000 nM. Further, the “Fraction … Hypoxic 0.2% O2” value in the data set with FaDu cell line is on record as “B (B is 0.05 to 0.15)”. The “Fraction … Oxic 5% O2” value with FaDu cell line is “D (D is 0 to 0.02)”.

On to `CN1CCC(Oc2cnc(N[C@H]3CC[C@@H](Oc4nc(N5CCOCC5)cc5ncc(N(Cc6cnn(C)c6[N+](=O)[O-])S(C)(=O)=O)cc45)CC3)nc2)C1` (stereo partly drawn) [LFA2062, N-[(1-methyl-5-nitro-pyrazol-4-yl)methyl]-N-[5-[4-[[5-(1-methylpyrrolidin-3-yl)oxypyrimidin-2-yl]amino]cyclohexoxy]-7-morpholino-1,6-naphthyridin-3-yl]methanesulfonamide], for which the IC50 in data set [1] fell in the range of 1000 to 10000 nM. In addition, the EC50 in data set [2] (setting [3]) was 10 to 500 nM; in data set [2] (setting [4]), 500 to 1000 nM; in data set [2] (setting [5]), 1000 to 10000 nM. For the same compound, in the data set on FaDu cell line, the “Fraction … Hypoxic 0.2% O2” value was “B (B is 0.05 to 0.15)”. In addition, the “Fraction … Oxic 5% O2” value with FaDu cell line is given as “B (B is 0.05 to 0.15)”.

In the case of `CC(Oc1cnc2cc(N3CCOCC3)nc(O[C@H]3CC[C@@H](N(C)c4ncccn4)CC3)c2c1)c1cnc([N+](=O)[O-])n1C` (stereo partly drawn) [LFA2063, N-methyl-N-[4-[[3-[1-(3-methyl-2-nitro-imidazol-4-yl)ethoxy]-7-morpholino-1,6-naphthyridin-5-yl]oxy]cyclohexyl]pyrimidin-2-amine], the IC50 in data set [1] was in the range of 10000 to 30000 nM. Further, the 50% effective concentration (EC50) in data set [2] (setting [3]) was in the range of 10 to 500 nM; in data set [2] (setting [4]) it was 1000 to 10000 nM; in data set [2] (setting [5]), 1000 to 10000 nM. The “Fraction … Hypoxic 0.2% O2” value in the data set with FaDu cell line is recorded as “A (A is 0.15 to 1)”. Besides, the “Fraction … Oxic 5% O2” value with FaDu cell line is on record as “B (B is 0.05 to 0.15)”.

In data set [1], `CC(c1cnn(C)c1[N+](=O)[O-])N(c1cnc2cc(N3CCOCC3)nc(O[C@H]3CC[C@@H](Nc4ncc(OC5CCN(C)C5)cn4)CC3)c2c1)S(C)(=O)=O` (stereo partly drawn) [LFA2064, N-[1-(1-methyl-5-nitro-pyrazol-4-yl)ethyl]-N-[5-[4-[[5-(1-methylpyrrolidin-3-yl)oxypyrimidin-2-yl]amino]cyclohexoxy]-7-morpholino-1,6-naphthyridin-3-yl]methanesulfonamide] registered an IC50 of 1000 to 10000 nM. Also, the EC50 in data set [2] (setting [3]) lay within 10 to 500 nM; in data set [2] (setting [4]), 1000 to 10000 nM; in data set [2] (setting [5]), 1000 to 10000 nM. Besides, the “Fraction … Hypoxic 0.2% O2” value in the data set with FaDu cell line is “B (B is 0.05 to 0.15)”. In the data set with FaDu cell line, the “Fraction … Oxic 5% O2” value is on record as “C (C is 0.02 to 0.05)”.

On to `CN1CCN(c2cnc(N[C@H]3CC[C@@H](Oc4nc(N5CCOCC5)cc5ncc(OCc6cnc([N+](=O)[O-])n6C)cc45)CC3)nc2)CC1` [LFA2065, N-[4-[[3-[(3-methyl-2-nitro-imidazol-4-yl)methoxy]-7-morpholino-1,6-naphthyridin-5-yl]oxy]cyclohexyl]-5-(4-methylpiperazin-1-yl)pyrimidin-2-amine], for which the IC50 in data set [1] was 10000 to 30000 nM. Besides, the EC50 in data set [2] (setting [3]) is 10 to 500 nM; in data set [2] (setting [4]) it was 1000 to 10000 nM; in data set [2] (setting [5]) it was 1000 to 10000 nM. Also, in the data set on FaDu cell line, the “Fraction … Hypoxic 0.2% O2” value is listed as “A (A is 0.15 to 1)”. For the same compound, the “Fraction … Oxic 5% O2” value in the data set with FaDu cell line is “C (C is 0.02 to 0.05)”.

In turn, `CC(Oc1cnc2cc(N3CCOCC3)nc(O[C@H]3CC[C@@H](Nc4ncc(N5CCN(C)CC5)cn4)CC3)c2c1)c1cnc([N+](=O)[O-])n1C` (stereo partly drawn) [LFA2066, N-[4-[[3-[1-(3-methyl-2-nitro-imidazol-4-yl)ethoxy]-7-morpholino-1,6-naphthyridin-5-yl]oxy]cyclohexyl]-5-(4-methylpiperazin-1-yl)pyrimidin-2-amine] had an IC50 in data set [1] of 10000 to 30000 nM. Besides, the EC50 in data set [2] (setting [3]) fell in the range of 10 to 500 nM; in data set [2] (setting [4]) it was 1000 to 10000 nM; in data set [2] (setting [5]) it was 1000 to 10000 nM. For the same compound, the “Fraction … Hypoxic 0.2% O2” value in the data set with FaDu cell line was “A (A is 0.15 to 1)”. In addition, the “Fraction … Oxic 5% O2” value in the data set on FaDu cell line is listed as “B (B is 0.05 to 0.15)”.

Turning to `CC(c1cnn(C)c1[N+](=O)[O-])N(c1cnc2cc(N3CCOCC3)nc(O[C@H]3CC[C@@H](Nc4ncc(N5CCN(C)CC5)cn4)CC3)c2c1)S(C)(=O)=O` (stereo partly drawn) [LFA2067, N-[1-(1-methyl-5-nitro-pyrazol-4-yl)ethyl]-N-[5-[4-[[5-(4-methylpiperazin-1-yl)pyrimidin-2-yl]amino]cyclohexoxy]-7-morpholino-1,6-naphthyridin-3-yl]methanesulfonamide], in data set [1], the IC50 was 1000 to 10000 nM. The EC50 in data set [2] (setting [3]) lay in the range of 10 to 500 nM; in data set [2] (setting [4]), 500 to 1000 nM; in data set [2] (setting [5]), 1000 to 10000 nM. For the same compound, the “Fraction … Hypoxic 0.2% O2” value with FaDu cell line was “B (B is 0.05 to 0.15)”. Further, the “Fraction … Oxic 5% O2” value with FaDu cell line was “B (B is 0.05 to 0.15)”.

Regarding `CC(c1cnc([N+](=O)[O-])n1C)N(c1cnc2cc(N3CCOCC3)nc(O[C@H]3CC[C@@H](Nc4ncc(OC5CCN(C)C5)cn4)CC3)c2c1)S(C)(=O)=O` (stereo partly drawn) [LFA2068, N-[1-(3-methyl-2-nitro-imidazol-4-yl)ethyl]-N-[5-[4-[[5-(1-methylpyrrolidin-3-yl)oxypyrimidin-2-yl]amino]cyclohexoxy]-7-morpholino-1,6-naphthyridin-3-yl]methanesulfonamide], in data set [1], the IC50 fell in the range of 1000 to 10000 nM. Also, the EC50 in data set [2] (setting [3]) is 500 to 1000 nM; in data set [2] (setting [4]), 1000 to 10000 nM; in data set [2] (setting [5]), 10000 to 100000 nM. The “Fraction … Hypoxic 0.2% O2” value in the data set on FaDu cell line is listed as “B (B is 0.05 to 0.15)”. Further, in the data set on FaDu cell line, the “Fraction … Oxic 5% O2” value is listed as “D (D is 0 to 0.02)”.
